# Where a name gives a salt, the structure may show the parent alone. Read-outs that look alike come from different tables or passages of the source.
# What was measured:
# [1] = Ionization state calculated from pKa and buffer pH; assay type: physicochemical; settings: pH 6.4
# From the text: Depending on the pH, the molecule exists as the neutral acid (H2A), monoanion (HA^−), or dianion (A^2−). […] These values were derived from the mole fraction (x) of the various species, based on the compound’s known pKa values and the corresponding buffer pH (Equations (3)–(6)).
# [2] = cited from earlier work; for Filtration: Result Range: % of reference, all filters
# [3] = Equilibrium solubility, saturation shake-flask, centrifugation as phase separation; settings: for solubility thermodynamic / solubility thermodynamic at 24 h: Britton-Robinson buffer; for solubility thermodynamic: sedimented before centrifugation; for solubility thermodynamic at 24 h: continuously stirred, no sedimentation; for Centrifugation: Result Range: % of reference, all centrifugation protocols
# Method: To determine equilibrium solubility, the samples were added to Britton-Robinson buffer solutions (BRB) adjusted to specific pH values, obtaining a heterogenous system (Table S2). BR buffers were used in the experiments across a pH range of 2.0 to 11.0, prepared by combining 0.04 M acetic acid, 0.04 M phosphoric acid, and 0.04 M boric acid. The mixture was then titrated with varying amounts of 0.2 M NaOH to achieve the desired pH values. The ionic strength was kept constant (I = 0.15) across all pH values using appropriate amounts of inert KCl. […] The exception was progesterone, a neutral molecule, for which only a single pH condition was necessary. […] This strategy enabled a more comprehensive assessment of how centrifugation parameters influence solubility. Different amounts of 0.2 M NaOH were used to adjust the pH of the buffer to the desired values, between pH 2.0 and 11.0.
# (§1) Samples were stirred using the μDISS Profiler™ (Pion Inc., Billerica, MA, USA) at 150 rpm [33], the pH was checked after 1 h and adjusted, if necessary, with either 0.1 M HCl or 0.1 M NaOH. To confirm the reliability of the results, the pH was measured again at the end of each experiment. Prior to centrifugation, two different approaches were applied: stirring samples for 6 h, followed by 18 h of sedimentation, according to the standardized protocol [18], or continuously stirring samples for 24 h, without a subsequent sedimentation step.
# From each sample, aliquots of 10 mL were transferred into centrifugation tubes and centrifuged using a Sartorius 2–16P type centrifuge.
# (§2) After centrifugation, the concentration was measured by the μDISS Profiler™ (Pion Inc., Billerica, MA, USA) equipped with UV probes. The aliquots were diluted with the buffer solution if necessary. The 2nd derivative method was utilized in the AuPRO™ 7.1 software (Pion Inc., Billerica, MA, USA) to determine the concentration of the samples after a calibration was conducted for each substance. Calibration was performed by adding small volumes of methanolic stock solutions with known concentrations to buffer solutions of defined pH. Separate calibration curves were prepared for each UV probe.
# At least three parallel measurements were carried out for each compound with each combination of variables (Table S1). Equilibrium solubility measurements using centrifugation were compared to those obtained by using only sedimentation.
# [4] = Equilibrium solubility, saturation shake-flask, sedimentation as phase separation (reference, standard protocol); settings: for solubility: Britton-Robinson buffer
# From the text: BR buffers were used in the experiments across a pH range of 2.0 to 11.0, prepared by combining 0.04 M acetic acid, 0.04 M phosphoric acid, and 0.04 M boric acid. The mixture was then titrated with varying amounts of 0.2 M NaOH to achieve the desired pH values. The ionic strength was kept constant (I = 0.15) across all pH values using appropriate amounts of inert KCl. […] Different amounts of 0.2 M NaOH were used to adjust the pH of the buffer to the desired values, between pH 2.0 and 11.0.
# as §1, §2
# At least three parallel measurements were carried out for each compound with each combination of variables (Table S1).
smiles,measurement,setting,value
"COc1ccc(Cc2nccc3cc(OC)c(OC)cc23)cc1OC [PAP-HCL, papaverine hydrochloride]",Fraction ionized,[1],50%
same,Filtration: Result Range,[2]; pH 3.0,85–95%
same,Filtration: Closest to Reference (100%),[2]; pH 3.0,95%
same,Filtration: Result Range,[2]; pH 6.4,42–106%
same,Filtration: Closest to Reference (100%),[2]; pH 6.4,95%
same,Filtration: Result Range,[2]; pH 10.0,62–95%
same,Filtration: Closest to Reference (100%),[2]; pH 10.0,95%
same,Solubility higher than the reference,"[3]; 10,000 rpm for 20 min without prior sedimentation",60–70%
same,solubility thermodynamic,"[3]; 25 °C, pH 3, aqueous buffer, thermodynamic from solid, Equilibrium solubility S sed, pH 3.0, 5000 rpm, 5 min",37200 µg/mL
same,solubility thermodynamic,"[3]; 25 °C, pH 3, aqueous buffer, thermodynamic from solid, Equilibrium solubility S sed, pH 3.0, 5000 rpm, 10 min",38000 µg/mL
same,solubility thermodynamic,"[3]; 25 °C, pH 3, aqueous buffer, thermodynamic from solid, Equilibrium solubility S sed, pH 3.0, 5000 rpm, 20 min",37100 µg/mL
same,solubility thermodynamic,"[3]; 25 °C, pH 3, aqueous buffer, thermodynamic from solid, Equilibrium solubility S sed, pH 3.0, 10,000 rpm, 5 min",39500 µg/mL
same,solubility thermodynamic,"[3]; 25 °C, pH 3, aqueous buffer, thermodynamic from solid, Equilibrium solubility S sed, pH 3.0, 10,000 rpm, 10 min",40900 µg/mL
same,solubility thermodynamic,"[3]; 25 °C, pH 3, aqueous buffer, thermodynamic from solid, Equilibrium solubility S sed, pH 3.0, 10,000 rpm, 20 min",39500 µg/mL
same,solubility thermodynamic at 24 h,"[3]; 25 °C, pH 3, aqueous buffer, thermodynamic from solid, Equilibrium solubility S stir, pH 3.0, 5000 rpm, 5 min",36800 µg/mL
same,solubility thermodynamic at 24 h,"[3]; 25 °C, pH 3, aqueous buffer, thermodynamic from solid, Equilibrium solubility S stir, pH 3.0, 5000 rpm, 10 min",41100 µg/mL
same,solubility thermodynamic at 24 h,"[3]; 25 °C, pH 3, aqueous buffer, thermodynamic from solid, Equilibrium solubility S stir, pH 3.0, 5000 rpm, 20 min",38400 µg/mL
same,solubility thermodynamic at 24 h,"[3]; 25 °C, pH 3, aqueous buffer, thermodynamic from solid, Equilibrium solubility S stir, pH 3.0, 10,000 rpm, 5 min",39100 µg/mL
same,solubility thermodynamic at 24 h,"[3]; 25 °C, pH 3, aqueous buffer, thermodynamic from solid, Equilibrium solubility S stir, pH 3.0, 10,000 rpm, 10 min",40400 µg/mL
same,solubility thermodynamic at 24 h,"[3]; 25 °C, pH 3, aqueous buffer, thermodynamic from solid, Equilibrium solubility S stir, pH 3.0, 10,000 rpm, 20 min",39300 µg/mL
same,solubility thermodynamic,"[3]; 25 °C, pH 6.4, aqueous buffer, thermodynamic from solid, Equilibrium solubility S sed, pH 6.4, 5000 rpm, 5 min",24.4 ± 0.48 µg/mL
same,solubility thermodynamic,"[3]; 25 °C, pH 6.4, aqueous buffer, thermodynamic from solid, Equilibrium solubility S sed, pH 6.4, 5000 rpm, 10 min",28.2 ± 0.78 µg/mL
same,solubility thermodynamic,"[3]; 25 °C, pH 6.4, aqueous buffer, thermodynamic from solid, Equilibrium solubility S sed, pH 6.4, 5000 rpm, 20 min",28.2 ± 0.73 µg/mL
same,solubility thermodynamic,"[3]; 25 °C, pH 6.4, aqueous buffer, thermodynamic from solid, Equilibrium solubility S sed, pH 6.4, 10,000 rpm, 5 min",24.4 ± 1.17 µg/mL
same,solubility thermodynamic,"[3]; 25 °C, pH 6.4, aqueous buffer, thermodynamic from solid, Equilibrium solubility S sed, pH 6.4, 10,000 rpm, 10 min",32.8 ± 0.81 µg/mL
same,solubility thermodynamic,"[3]; 25 °C, pH 6.4, aqueous buffer, thermodynamic from solid, Equilibrium solubility S sed, pH 6.4, 10,000 rpm, 20 min",31.2 ± 1.08 µg/mL
same,solubility thermodynamic at 24 h,"[3]; 25 °C, pH 6.4, aqueous buffer, thermodynamic from solid, Equilibrium solubility S stir, pH 6.4, 5000 rpm, 5 min",33 ± 2.11 µg/mL
same,solubility thermodynamic at 24 h,"[3]; 25 °C, pH 6.4, aqueous buffer, thermodynamic from solid, Equilibrium solubility S stir, pH 6.4, 5000 rpm, 10 min",32.3 ± 1.54 µg/mL
same,solubility thermodynamic at 24 h,"[3]; 25 °C, pH 6.4, aqueous buffer, thermodynamic from solid, Equilibrium solubility S stir, pH 6.4, 5000 rpm, 20 min",32.9 ± 1.26 µg/mL
same,solubility thermodynamic at 24 h,"[3]; 25 °C, pH 6.4, aqueous buffer, thermodynamic from solid, Equilibrium solubility S stir, pH 6.4, 10,000 rpm, 5 min",28.6 ± 1.55 µg/mL
same,solubility thermodynamic at 24 h,"[3]; 25 °C, pH 6.4, aqueous buffer, thermodynamic from solid, Equilibrium solubility S stir, pH 6.4, 10,000 rpm, 10 min",37.8 ± 2.07 µg/mL
same,solubility thermodynamic at 24 h,"[3]; 25 °C, pH 6.4, aqueous buffer, thermodynamic from solid, Equilibrium solubility S stir, pH 6.4, 10,000 rpm, 20 min",39.1 ± 1.34 µg/mL
same,solubility thermodynamic,"[3]; 25 °C, pH 10, aqueous buffer, thermodynamic from solid, Equilibrium solubility S sed, pH 10.0, 5000 rpm, 10 min",14.3 ± 0.17 µg/mL
same,solubility thermodynamic,"[3]; 25 °C, pH 10, aqueous buffer, thermodynamic from solid, Equilibrium solubility S sed, pH 10.0, 10,000 rpm, 5 min",16.3 ± 0.57 µg/mL
same,solubility thermodynamic,"[3]; 25 °C, pH 10, aqueous buffer, thermodynamic from solid, Equilibrium solubility S sed, pH 10.0, 10,000 rpm, 10 min",17.5 ± 0.18 µg/mL
same,solubility thermodynamic,"[3]; 25 °C, pH 10, aqueous buffer, thermodynamic from solid, Equilibrium solubility S sed, pH 10.0, 10,000 rpm, 20 min",18.7 ± 2.41 µg/mL
same,solubility thermodynamic at 24 h,"[3]; 25 °C, pH 10, aqueous buffer, thermodynamic from solid, Equilibrium solubility S stir, pH 10.0, 5000 rpm, 5 min",18.4 ± 0.28 µg/mL
same,solubility thermodynamic at 24 h,"[3]; 25 °C, pH 10, aqueous buffer, thermodynamic from solid, Equilibrium solubility S stir, pH 10.0, 10,000 rpm, 10 min",18.2 ± 1.12 µg/mL
same,solubility thermodynamic at 24 h,"[3]; 25 °C, pH 10, aqueous buffer, thermodynamic from solid, Equilibrium solubility S stir, pH 10.0, 10,000 rpm, 20 min",28.7 ± 0.7 µg/mL
same,solubility thermodynamic,"[3]; pH 10, Equilibrium solubility S sed, pH 10.0, 5000 rpm, 5 min",17 ± 0.86 µg/mL
same,solubility thermodynamic,"[3]; pH 10, Equilibrium solubility S sed, pH 10.0, 5000 rpm, 20 min",14.4 ± 0.38 µg/mL
same,solubility thermodynamic at 24 h,"[3]; pH 10, Equilibrium solubility S stir, pH 10.0, 5000 rpm, 10 min",13.3 ± 0.2 µg/mL
same,solubility thermodynamic at 24 h,"[3]; pH 10, Equilibrium solubility S stir, pH 10.0, 5000 rpm, 20 min",16.9 ± 0.79 µg/mL
same,solubility thermodynamic at 24 h,"[3]; pH 10, Equilibrium solubility S stir, pH 10.0, 10,000 rpm, 5 min",17.8 ± 0.5 µg/mL
same,Centrifugation: Closest to Reference (100%),[3]; pH 3.0,100%
same,Centrifugation: Result Range,[3]; pH 3.0,91–102%
same,Centrifugation: Closest to Reference (100%),[3]; pH 6.4,101%
same,Centrifugation: Result Range,[3]; pH 6.4,101–162%
same,Centrifugation: Closest to Reference (100%),[3]; pH 10.0,100%
same,Centrifugation: Result Range,[3]; pH 10.0,78–170%
same,Solubility compared to the other samples,"[3]; pH 10.0, higher centrifugation speed, 20 min of centrifugation",nearly doubled
same,solubility,"[4]; 25 °C, pH 3, aqueous buffer, thermodynamic from solid, Solubility (reference), pH 3.0, 6 h stirring, 18 h sedimentation",40400 µg/mL
same,solubility,"[4]; 25 °C, pH 6.4, aqueous buffer, thermodynamic from solid, Solubility (reference), pH 6.4, 6 h stirring, 18 h sedimentation",24.2 ± 1.1 µg/mL
same,solubility,"[4]; pH 10, Solubility (reference), pH 10.0, 6 h stirring, 18 h sedimentation, 25 °C",~17 µg/mL
same,Solubility at pH 3.0 relative to pH 10.0,[4]; fully ionized vs neutral form,around 2350 times
same,Solubility (reference),"[4]; pH 10.0, 6 h stirring, 18 h sedimentation, 25 °C",16.9 ± 1.7 µg/mL

# Source: paper PMC12566593, “Effects of Different Centrifugation Parameters on Equilibrium Solubility Measurements” (Methods and Protocols, 2025)
